Among the data in ChEMBL document CHEMBL1201862, “PubChem BioAssay data set” (2004) are IC50, EC50 and AC50 values, retold here.

The target in assay [1] is T1, Fatty acid synthase (Homo sapiens, UniProt P49327). The assay can be described thus: inhibition of human FAS-TE enzyme activity – biochemical, kinetic fluorescence intensity, dose response (AID 624326).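 Also: rate of fluorescence rise from hydrolysis of a fluorogenic O-methyl fluorescein ester substrate.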 The class given is functional.
The target of assay [2] is T1, Fatty acid synthase. Description: inhibition of human FAS-TE enzyme activity – biochemical, endpoint fluorescence intensity, uHTS hits, dose response (AID 624327).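 Also: fluorescence from hydrolysis of an O-methyl fluorescein acyl ester substrate by the enzyme.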 Format: functional.
Assay [3] concerns the target T2, Polyadenylate-binding protein 1 (Homo sapiens, UniProt P11940). Description: MLLE domain peptide-binding blockers, IC50 – biochemical, fluorescence polarization, FITC-PAM2 peptide, dose response (AID 602259). The class given is functional. As to conditions: read-out: IC50_Mean. A general note: Polarisation of emitted light reports the rotation of a fluorescent probe.

Assay [4] addresses T2, Polyadenylate-binding protein 1. The assay can be described thus: MLLE binding blockers, Cy5 peptide tracer – biochemical, fluorescence polarization, Cy5-PAM2 peptide, secondary, miRNA deadenylation inhibitor project, dose response (AID 602260). The class given is functional. The conditions noted are these: read-out: IC50_Mean.
Assay [5] is described as follows: Luminescence Cell-Based Dose Response HTS to Identify Activators of Luciferase Translation or Activity in H4 […] Cells. [Related pubchem assays: 1829 (Project Summary), 1814 (Primary HTS)]. Format: functional.
In a further assay the test system is H4. Description: Luminescence Cell-Based Dose Response HTS to Identify Activators of 5'UTR Stem-Loop Driven Prion Protein mRNA Translation in H4 Neuroglioblastoma Cells. [Related pubchem assays: 1829 (Project Summary), 1814 (Primary HTS)]. Format: functional. As to conditions: Homo sapiens.
Assay [6] is described as follows: Luminescence Cell-Based Dose Confirmation HTS to Identify Activators of 5'UTR Stem-Loop Driven Alpha-Synuclein mRNA Translation in H4 Neuroglioblastoma Cells. [Related pubchem assays: 1829 (Project Summary), 1814 (Primary HTS)]. The class given is functional.
For another assay, the system named is H9c2. The assay can be described thus: cells. Format: functional, cell-based. As to conditions: Rattus norvegicus, H9c2, Myocardium.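 Also: confirmatory concentration-response retest of ultra-high-throughput screening hits for modulation of myocardial damage; cell death induced by hydrogen peroxide oxidative stress; compound pretreatment for 60 min then peroxide exposure for 2 h; potency is for protecting the cells against peroxide damage rather than for killing them.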
The target of another assay is T3, Streptokinase A (Streptococcus pyogenes serotype M1, UniProt P10520).
T3 sequence (P10520 whole entry): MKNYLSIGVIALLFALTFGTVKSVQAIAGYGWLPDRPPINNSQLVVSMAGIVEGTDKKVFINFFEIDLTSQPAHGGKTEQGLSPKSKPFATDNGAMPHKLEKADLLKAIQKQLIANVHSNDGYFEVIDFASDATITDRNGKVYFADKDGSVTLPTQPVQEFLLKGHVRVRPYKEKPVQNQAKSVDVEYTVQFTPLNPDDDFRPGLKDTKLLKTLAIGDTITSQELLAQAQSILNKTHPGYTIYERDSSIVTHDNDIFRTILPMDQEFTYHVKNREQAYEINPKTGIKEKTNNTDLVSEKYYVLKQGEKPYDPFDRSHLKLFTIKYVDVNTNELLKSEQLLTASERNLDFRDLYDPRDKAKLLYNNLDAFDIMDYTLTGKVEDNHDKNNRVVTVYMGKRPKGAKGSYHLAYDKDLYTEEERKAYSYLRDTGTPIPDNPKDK
Description: viability-normalized secreted streptokinase activity reduction – plasminogen activation absorbance, OD405, dose response (AID 1914).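 Also: secreted streptokinase activity via plasminogen activation per viability signal from cell pellet.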 Format: functional, Streptococcus pyogenes M1 GAS.

The next assay relates to Streptococcus. Description: GAS UMAA2166 growth inhibition – luminescence, BacTiterGlo, counter-screen for streptokinase expression inhibitor project, dose response (AID 1915).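 Also: potency for reduction of bacterial viability or growth.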 The class given is functional, organism-based. (In general: The purpose of a counterscreen is to sort out artefacts and off-target activity.)
In assay [7] the test system is Streptococcus sp. 'group A'. Description: Streptococcus pyogenes SK(-)GAS viability under kanamycin – luminescence, BacTiterGlo, confirmation, counter-screen for streptokinase expression inhibitor project, dose response (AID 1900). Format: functional, organism-based.
The target in a further assay is T4, Cytochrome P450 1A2 (Homo sapiens, UniProt P05177).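 Also: PubChem cytochrome P450 panel assay, CYP1A2 panel member.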
T4 sequence (P05177 whole entry): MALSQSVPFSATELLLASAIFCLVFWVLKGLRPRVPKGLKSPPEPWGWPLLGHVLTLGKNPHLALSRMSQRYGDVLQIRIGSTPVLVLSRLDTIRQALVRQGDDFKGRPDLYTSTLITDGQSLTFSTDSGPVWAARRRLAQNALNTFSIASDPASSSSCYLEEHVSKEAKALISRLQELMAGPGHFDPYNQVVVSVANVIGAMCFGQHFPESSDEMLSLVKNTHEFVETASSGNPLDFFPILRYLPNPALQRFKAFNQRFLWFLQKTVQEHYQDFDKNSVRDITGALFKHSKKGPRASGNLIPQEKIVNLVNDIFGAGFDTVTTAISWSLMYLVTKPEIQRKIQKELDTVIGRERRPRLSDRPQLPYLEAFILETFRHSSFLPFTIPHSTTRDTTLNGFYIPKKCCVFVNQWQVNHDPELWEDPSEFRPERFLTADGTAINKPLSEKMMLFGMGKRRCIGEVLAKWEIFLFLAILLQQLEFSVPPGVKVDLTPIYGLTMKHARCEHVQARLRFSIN

The next assay addresses Cytochrome P450 2C19 (Homo sapiens, UniProt P33261). Description: Cytochrome panel assay with activity outcomes. Panel member name: p450-cyp2c19 Compounds with AC50 equal or less than 10 uM are considered active. As to conditions: read-out: AC50. Format: functional.

Structures are written as SMILES. Active and inactive are the calls of the source. Where only a bound is given, the exact number is not on record here.

T1 sequence (P49327 whole entry): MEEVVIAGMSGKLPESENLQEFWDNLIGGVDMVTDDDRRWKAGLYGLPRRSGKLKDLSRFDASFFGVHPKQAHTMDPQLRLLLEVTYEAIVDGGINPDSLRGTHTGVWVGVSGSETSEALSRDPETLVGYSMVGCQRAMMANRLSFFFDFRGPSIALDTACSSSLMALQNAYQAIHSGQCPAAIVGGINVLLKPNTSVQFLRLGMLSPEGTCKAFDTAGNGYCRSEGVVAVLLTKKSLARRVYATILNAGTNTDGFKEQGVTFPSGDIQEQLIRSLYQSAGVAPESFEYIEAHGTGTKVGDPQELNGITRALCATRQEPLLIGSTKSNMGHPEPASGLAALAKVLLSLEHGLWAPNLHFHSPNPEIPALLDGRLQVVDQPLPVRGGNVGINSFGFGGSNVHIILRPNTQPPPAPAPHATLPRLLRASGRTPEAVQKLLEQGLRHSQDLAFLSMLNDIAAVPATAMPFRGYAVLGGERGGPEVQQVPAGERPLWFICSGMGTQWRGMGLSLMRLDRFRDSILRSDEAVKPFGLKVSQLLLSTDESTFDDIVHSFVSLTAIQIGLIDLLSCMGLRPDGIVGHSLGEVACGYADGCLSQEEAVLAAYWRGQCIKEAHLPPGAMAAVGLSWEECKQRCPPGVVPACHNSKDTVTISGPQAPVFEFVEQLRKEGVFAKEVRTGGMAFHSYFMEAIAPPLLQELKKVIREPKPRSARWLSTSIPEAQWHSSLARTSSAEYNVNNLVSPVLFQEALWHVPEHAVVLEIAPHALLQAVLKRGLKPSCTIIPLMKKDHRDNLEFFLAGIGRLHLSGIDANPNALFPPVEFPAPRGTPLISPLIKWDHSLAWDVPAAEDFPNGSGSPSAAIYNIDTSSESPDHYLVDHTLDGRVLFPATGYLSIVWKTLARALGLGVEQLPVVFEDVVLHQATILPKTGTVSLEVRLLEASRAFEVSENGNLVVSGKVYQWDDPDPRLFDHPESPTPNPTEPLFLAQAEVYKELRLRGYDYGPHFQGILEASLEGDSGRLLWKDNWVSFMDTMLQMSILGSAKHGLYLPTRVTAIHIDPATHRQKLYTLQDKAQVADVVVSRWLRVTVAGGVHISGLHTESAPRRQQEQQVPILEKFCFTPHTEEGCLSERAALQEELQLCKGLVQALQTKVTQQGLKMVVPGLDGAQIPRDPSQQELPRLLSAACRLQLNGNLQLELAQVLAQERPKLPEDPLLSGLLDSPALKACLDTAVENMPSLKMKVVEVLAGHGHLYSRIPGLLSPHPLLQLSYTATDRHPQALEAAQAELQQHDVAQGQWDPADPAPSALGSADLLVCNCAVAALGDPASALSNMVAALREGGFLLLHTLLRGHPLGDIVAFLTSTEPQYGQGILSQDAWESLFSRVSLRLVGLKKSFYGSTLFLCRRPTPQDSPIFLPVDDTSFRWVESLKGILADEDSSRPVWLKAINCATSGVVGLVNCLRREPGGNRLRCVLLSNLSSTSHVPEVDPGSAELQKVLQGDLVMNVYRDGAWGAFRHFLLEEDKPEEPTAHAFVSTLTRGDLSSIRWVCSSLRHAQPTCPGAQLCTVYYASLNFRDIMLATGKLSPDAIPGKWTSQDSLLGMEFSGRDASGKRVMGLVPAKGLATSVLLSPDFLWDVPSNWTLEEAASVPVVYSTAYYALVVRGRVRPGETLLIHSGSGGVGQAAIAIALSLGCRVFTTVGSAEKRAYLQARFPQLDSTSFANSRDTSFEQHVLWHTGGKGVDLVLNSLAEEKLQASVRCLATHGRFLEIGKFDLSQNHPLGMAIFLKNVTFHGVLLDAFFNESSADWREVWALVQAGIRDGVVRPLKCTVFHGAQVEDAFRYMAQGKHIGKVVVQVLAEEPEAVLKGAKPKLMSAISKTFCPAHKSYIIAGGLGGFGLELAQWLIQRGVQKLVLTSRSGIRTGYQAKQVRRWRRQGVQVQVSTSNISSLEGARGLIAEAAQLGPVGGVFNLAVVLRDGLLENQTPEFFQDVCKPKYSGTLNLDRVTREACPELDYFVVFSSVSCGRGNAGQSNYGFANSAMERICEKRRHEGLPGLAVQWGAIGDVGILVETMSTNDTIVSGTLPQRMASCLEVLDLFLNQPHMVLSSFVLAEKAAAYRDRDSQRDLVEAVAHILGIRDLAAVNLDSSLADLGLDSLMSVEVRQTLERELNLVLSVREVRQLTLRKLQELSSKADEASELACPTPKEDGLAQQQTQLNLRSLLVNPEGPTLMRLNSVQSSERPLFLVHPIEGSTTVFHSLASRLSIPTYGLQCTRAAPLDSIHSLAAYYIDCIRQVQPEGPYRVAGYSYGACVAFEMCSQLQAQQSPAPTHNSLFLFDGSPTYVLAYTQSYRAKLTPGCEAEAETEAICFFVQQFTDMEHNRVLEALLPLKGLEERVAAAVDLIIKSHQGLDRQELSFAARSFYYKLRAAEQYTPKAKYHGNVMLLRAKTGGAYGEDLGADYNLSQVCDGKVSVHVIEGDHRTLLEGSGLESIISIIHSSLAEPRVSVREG
T2 sequence (P11940 whole entry, the tested form may be a part): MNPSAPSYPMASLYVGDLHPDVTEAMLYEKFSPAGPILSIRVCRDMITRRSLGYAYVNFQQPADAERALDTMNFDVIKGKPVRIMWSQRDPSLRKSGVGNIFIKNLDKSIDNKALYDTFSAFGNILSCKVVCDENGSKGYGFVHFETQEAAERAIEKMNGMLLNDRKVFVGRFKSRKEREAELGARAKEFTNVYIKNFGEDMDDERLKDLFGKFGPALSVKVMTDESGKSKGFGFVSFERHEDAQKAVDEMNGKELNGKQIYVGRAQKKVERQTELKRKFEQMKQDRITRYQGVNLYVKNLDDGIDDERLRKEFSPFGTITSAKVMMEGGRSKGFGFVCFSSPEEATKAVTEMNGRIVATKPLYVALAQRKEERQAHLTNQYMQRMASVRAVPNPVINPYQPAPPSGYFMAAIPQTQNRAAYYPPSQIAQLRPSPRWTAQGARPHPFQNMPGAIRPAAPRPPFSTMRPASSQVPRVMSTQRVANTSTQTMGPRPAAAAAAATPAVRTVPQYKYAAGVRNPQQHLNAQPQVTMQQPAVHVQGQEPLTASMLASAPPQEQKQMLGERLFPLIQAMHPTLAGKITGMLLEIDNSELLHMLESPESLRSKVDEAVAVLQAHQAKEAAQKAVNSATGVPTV
Chain of Cytochrome P450 2C19 (P33261 whole entry): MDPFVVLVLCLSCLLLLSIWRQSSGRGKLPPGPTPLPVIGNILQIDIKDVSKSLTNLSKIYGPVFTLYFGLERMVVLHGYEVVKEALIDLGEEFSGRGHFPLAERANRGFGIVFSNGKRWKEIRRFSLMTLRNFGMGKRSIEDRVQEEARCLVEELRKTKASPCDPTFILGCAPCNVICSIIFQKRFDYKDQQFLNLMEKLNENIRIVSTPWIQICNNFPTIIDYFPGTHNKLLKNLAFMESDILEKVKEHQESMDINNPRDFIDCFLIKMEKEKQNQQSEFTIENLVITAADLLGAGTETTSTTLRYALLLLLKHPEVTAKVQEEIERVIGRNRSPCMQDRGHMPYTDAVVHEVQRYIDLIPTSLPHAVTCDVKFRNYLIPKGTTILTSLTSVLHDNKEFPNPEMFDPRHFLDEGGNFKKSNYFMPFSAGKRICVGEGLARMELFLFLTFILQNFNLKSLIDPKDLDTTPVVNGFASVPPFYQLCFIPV

On to `COC(=O)c1cc(C(=O)OCC(=O)c2ccc3c(c2)NC(=O)CO3)cc([N+](=O)[O-])c1`, for which the IC50 on Fatty acid synthase [1] was 30.9 µM (inactive); on Fatty acid synthase [2], 13.6 µM (active).
As to `COc1ccc(OC)c(S(=O)(=O)N2CCCCC2C(=O)N2CCN(c3ccccn3)CC2)c1` (stereo unspecified), the IC50 in assay [3] and in assay [4] was > 66 µM (inactive) in each case.
Turning to `Cc1cc(C)nc(SCNC(=O)c2ccc(Cl)cc2)n1`, the IC50 in assay [3] and in assay [4] was > 66 µM (inactive) throughout.
Consider `Cc1nc2c(cc(Oc3ccc(S(=O)(=O)N4CCOCC4)cn3)c3ccsc32)s1`, for which the EC50 (in general, the midpoint of the concentration-response curve) in assay [5] was 15.5 µM (active); with H4 it was > 120 µM (not active); in assay [6], 10.2 µM (active).
Take `O=C1c2ccccc2NC(c2ccccc2O)N1NS(=O)(=O)c1ccccc1` (stereo unspecified): the EC50 in [5] is given as > 60 µM (not active); with H4, > 120 µM (not active); in [6], > 120 µM (not active).
On to `Cc1ccc(-c2csc(N3CCC[C@@H]3C(=O)NCCn3c(-c4ccncc4)nc4ccccc43)n2)cc1`, for which the IC50 in the assay on H9c2 is > 79 µM (inactive).
With `CC1(C(=O)NC(=S)N(CCC#N)c2ccccc2)CC1(Cl)Cl` (stereo unspecified), the IC50 in assay [3] and in assay [4] was > 66 µM (inactive) throughout.
Regarding `O=C(NCC(=O)N(Cc1cccs1)C(C(=O)NC1CCCC1)c1ccco1)c1cccs1` (stereo unspecified), in the assay on H9c2, the IC50 was > 79 µM (inactive).
Regarding `O=C(NC1CCCCCC1)C(=S)N1CCOCC1`, the IC50 in [3] and in assay [4] was > 66 µM (inactive) throughout.
Take `NC(=NOC(=O)CCC1CCCCC1)c1cccc([N+](=O)[O-])c1`: the results for the IC50 at Fatty acid synthase [1] and at Fatty acid synthase [2] were 6 µM (active) and 6.09 µM (active), respectively.
In the case of `CC(=O)Nc1ccc(NC(=S)NC(=O)c2ccc([N+](=O)[O-])cc2)cc1`, the IC50 in [3] and in assay [4] was > 66 µM (inactive) each time.
`CN(C(=O)CSc1nncc2ccccc12)C1CCCCC1`: the half-maximal effective concentration (EC50) in assay [5] is 14.1 µM (active); in the assay with H4 it was 13.1 µM (active); in assay [6] it was 10.5 µM (active).
Turning to `COCCOC(=O)C1=C(C)NC(=O)NC1c1c(Cl)nc2ccccn2c1=O` (stereo unspecified), the IC50 in [3] and in assay [4] was > 66 µM (inactive) throughout.
Consider `COc1cccc(C2C(C#N)=C(N)OC(C(C)(C)C)=C2C#N)c1` (stereo unspecified), for which the half-maximal effective concentration (EC50) (in assay [5]; with H4; in assay [6]) was > 120 µM (not active) in each case.
As for `O=C(Cc1cccc(C(F)(F)F)c1)OCN1C(=O)c2ccccc2C1=O`, the IC50 is 11.6 µM (active) at Fatty acid synthase [1] and 16.8 µM (active) at Fatty acid synthase [2].
As to `CSc1ccc(CC(=O)N2CCC(n3nccc3NC(=O)C3CC3)CC2)cc1`, the EC50 in assay [5] is 4.85 µM (active); in the assay on H4 it was > 120 µM (not active); in [6] it was 15.2 µM (active).
`Cc1nn(C)cc1C(C(=O)NC1CCCCC1)N(C(=O)Cc1cccs1)c1ccc(C(C)C)cc1` (stereo unspecified): the figures for the IC50 on Fatty acid synthase [1] and at Fatty acid synthase [2] were 4.06 µM (active) and 8.86 µM (active), respectively.
Consider `O=c1c2ccccc2oc2nc(-c3ccco3)n(Cc3ccccc3)c(=O)c12`, for which the IC50 in the assay on H9c2 is > 79 µM (inactive).
For `CCOC(=O)C1=C(CSc2nc(-c3ccccc3)ccc2C#N)OC(N)=C(C#N)C1c1ccc(OC)cc1` (stereo unspecified), the values for the concentration for a half-maximal effect (EC50) (in assay [5]; in the assay with H4; in assay [6]) were 16.8 µM (active), 13.3 µM (active) and 12.3 µM (active), respectively.
As to `CCOc1ccc2[nH]c(SCC(=O)OC)c([N+](=O)[O-])c2c1`, the IC50 in assay [3] was 41 µM (inactive); in [4] it was > 66 µM (inactive).
For `CCN(CC)S(=O)(=O)c1ccc(-n2cnc3cc(C)c(C)cc32)nc1`, the results for the IC50 on Fatty acid synthase [1] and on Fatty acid synthase [2] were 12.8 µM (active) and 11.4 µM (active), respectively.
As to `CCCN1C(=O)/C(=C/c2nc(O)c3ccccc3n2)c2ccccc21`, the IC50 in the assay on H9c2 was > 79 µM (inactive).
For the compound `Cc1cccc(NC(=O)CNC(=O)COC(=O)c2ccc(C(C)(C)C)cc2)c1C`, the results for the IC50 at Fatty acid synthase [1] and on Fatty acid synthase [2] were 20.7 µM (inactive) and 14.6 µM (active), respectively.
In the case of `CC(OC(=O)Cn1[nH]c(=O)c2ccccc2c1=O)C(=O)NC1(C#N)CCCCC1` (stereo unspecified), the IC50 in the assay with H9c2 was > 79 µM (inactive).
Consider `O=C(Nc1ccccc1N1CCCC1)c1cc2ccccc2o1`, for which the EC50 in [5] is 5.42 µM (active); in the assay with H4 it was 56.5 µM (active); in [6], 6.1 µM (active). Moreover, the IC50 in assay [3] and in assay [4] was > 66 µM (inactive) each time.
For `COc1ccc(-c2nnc(SCC(=O)Nc3ncc(C(F)(F)F)cc3Cl)n2CC(C)C)cc1`, the IC50 on Fatty acid synthase [1] is 3.55 µM (active); at Fatty acid synthase [2], 2.11 µM (active).
As to `COc1ccccc1NS(=O)(=O)c1cc(NC(=O)Cc2nnc(O)c3ccccc23)ccc1Cl`, in the assay with H9c2, the IC50 is 20 µM (active).
The same measure, in the same setting: the result for `O=C(COc1cccc2c1CCNC2=O)Nc1ccc(F)cc1` reads 37.2 µM (inactive).
As to `O=C(CSc1ncnc2c1cnn2-c1ccccc1)NC1CCS(=O)(=O)C1` (stereo unspecified), the IC50 is 9.44 µM (active) on Fatty acid synthase [1] and 7.65 µM (active) on Fatty acid synthase [2].
As to `COc1cc(-c2cc(NC(C)=O)c3ncc(-c4ccccc4)n3c2)cc(OC)c1OC`, the IC50 with H9c2 is > 79 µM (inactive).
As to `CN(C)CCCNC(=O)CC1C[C@H](C(=O)N2CCOCC2)[C@@]2(CCC3CCCC3)c3[nH]c4ccccc4c3CCN2C1=O` (stereo partly specified), the IC50 was 4.82 µM (active) on Fatty acid synthase [1] and 2.12 µM (active) on Fatty acid synthase [2].
The like results for `O=C(CC1C[C@H](C(=O)N2CCOCC2)[C@@]2(CCC3CCCC3)c3[nH]c4ccccc4c3CCN2C1=O)NCc1ccco1` (stereo partly specified) were, in that order, 0.778 µM (active) and 1.25 µM (active).
The like results for `O=C(NC1CCCCC1)N(c1ccccc1)c1nnc(-c2cccc([N+](=O)[O-])c2)s1` were, in that order, 7.21 µM (active) and 6.12 µM (active).
Consider `Brc1ccc(-c2ccc(/C=N/Nc3nc(N4CCOCC4)nc(N4CCOCC4)n3)o2)cc1`, for which, in the assay with H9c2, the IC50 is > 79 µM (inactive).
`CCOc1ccc(N/C(S)=N/CCCn2ccnc2)cc1`: the half-maximal effective concentration (EC50) (in assay [5]; with H4; in assay [6]) was > 120 µM (not active) each time.
For `COc1ccc(/C=N/Nc2nc(Nc3ccccc3)nc(N3CCCCC3)n2)cc1OC`, the concentration giving a half-maximal response (EC50) is 8.28 µM (active) in assay [5]; > 150 µM (not active) at Streptokinase A; 46.3 µM (active) in the assay with Streptococcus; 23.1 µM (active) with H4; 16.1 µM (active) in assay [7]; 9.49 µM (active) in assay [6].
Consider `C(/C=C/c1ccco1)=N/N1CCN(c2ccccc2)CC1`, for which the AC50 – broadly, the midpoint of the concentration-response curve, whichever way the signal moves – is 8.91 µM (inconclusive) at Cytochrome P450 1A2 and 2 µM (inconclusive) on Cytochrome P450 2C19. Also, the EC50 was 17.5 µM (active) in assay [5] and 2.21 µM (active) in assay [6].
